# Measured values taken from PMC9157191, “The ex vivo pharmacology of HIV-1 antiretrovirals differs between macaques and humans” (iScience, 2022).
# Values joined by “and” are separate entries in the source; they are usually repeats but may differ in a detail not shown here. Identical values can stand only once.
# Columns and labels:
# HIV-1BaL [1] = assay: microbe, parasite or virus in culture; type: cell-based; conditions: Human cervical explants
# HIV-1BaL [2] = assay: microbe, parasite or virus in culture; type: cell-based; conditions: Human colorectal explants
# HIV-1YU.2 = assay: microbe, parasite or virus in culture; type: cell-based; conditions: Human colorectal explants
# HIV-1YU.2 K65R = assay: microbe, parasite or virus in culture; type: cell-based; conditions: Human colorectal explants
# HIV-1YU.2 M184V = assay: microbe, parasite or virus in culture; type: cell-based; conditions: Human colorectal explants
# HIV-1YU.2 K65RM184V = assay: microbe, parasite or virus in culture; type: cell-based; conditions: Human colorectal explants;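 for p24 AUC3-15: high arm above the IC50 and low arm below the IC50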
# SIVmac32H [3] = assay: microbe, parasite or virus in culture; type: cell-based; conditions: for p27 AUC3-15: Rhesus macaque cervical explants
# SIVmac32H K65RM184V [4] = assay: microbe, parasite or virus in culture; type: cell-based; conditions: for p27 AUC3-15: Rhesus macaque cervical explants
# SIVmac32H [5] = assay: microbe, parasite or virus in culture; type: cell-based; conditions: for p27 AUC3-15: Rhesus macaque vaginal explants
# SIVmac32H K65RM184V [6] = assay: microbe, parasite or virus in culture; type: cell-based; conditions: for p27 AUC3-15: Rhesus macaque vaginal explants
# RT-SHIV [7] = assay: tissue or blood; type: cell-based; conditions: for p27 AUC3-15: Rhesus macaque vaginal explants
# SIVmac32H [8] = assay: microbe, parasite or virus in culture; type: cell-based; conditions: for p27 AUC3-15: Rhesus macaque colorectal explants
# SIVmac32H K65RM184V [9] = assay: microbe, parasite or virus in culture; type: cell-based; conditions: for p27 AUC3-15: Rhesus macaque colorectal explants
# RT-SHIV [10] = assay: tissue or blood; type: cell-based; conditions: for p27 AUC3-15: Rhesus macaque colorectal explants
# SIVmac32H K65R = type: cell-based, SIV
# SIVmac32H M184V = type: cell-based, SIV
# [11] = Drug concentrations in human colorectal tissue explants (LC-MS/MS); type: in vitro ADME; conditions: for AUC3h-15d / Cmax: Human colorectal explants, 3 h exposure; for Cmax: human, colorectal tissue explants, read-out: Cmax
# [12] = Drug concentrations in Rhesus macaque colorectal tissue explants (LC-MS/MS); type: in vitro ADME, Rhesus macaque (Macaca mulatta); conditions: for AUC3h–15d / Cmax: Rh. macaque colorectal explants, 3 h exposure; for Cmax: monkey, colorectal tissue explants, read-out: Cmax
# [13] = Drug concentrations in Rhesus macaque ecto-cervical tissue explants (LC-MS/MS); type: in vitro ADME, Rhesus macaque (Macaca mulatta); conditions: for AUC3h–15d / Cmax: Rh. macaque ecto-cervical explants, 3 h exposure; for Cmax: monkey, ecto-cervical tissue explants
# [14] = Drug concentrations in Rhesus macaque vaginal tissue explants (LC-MS/MS); type: in vitro ADME, Rhesus macaque (Macaca mulatta); conditions: for AUC3h–15d / Cmax: Rh. macaque vaginal explants, 3 h exposure; for Cmax: monkey, vaginal tissue explants, read-out: Cmax
# HIV-1/SIV/SHIV isolates = type: cell-based
# [15] = Drug concentrations in human ecto-cervical tissue explants (LC-MS/MS); conditions: for AUC3h-15d / Cmax: Human ecto-cervical explants, 3 h exposure; for Cmax: human, ecto-cervical tissue explants
# [16] = high concentration: TFV 70 µM, MVC […], or TFV 70 µM + MVC […]
# [17] = low concentration: TFV 7 µM, MVC […], or TFV 7 µM + MVC […]
# [18] = Human immunodeficiency virus 1, 360 h, day 15
# [19] = Simian immunodeficiency virus, in Macaca mulatta, 360 h, NHP cervical explants, day 15
# [20] = Simian immunodeficiency virus, in Macaca mulatta, 360 h, NHP vaginal explants, day 15
# [21] = Simian immunodeficiency virus, in Macaca mulatta, 360 h, NHP colorectal explants, day 15
# [22] = Comb. gel, High [ ]: TFV 70 µM + MVC […]
# [23] = Comb. gel, Low [ ]: TFV 7 µM + MVC […]
# [24] = Single gel, High [ ]: TFV 70 µM or MVC […]
# [25] = Single gel, Low [ ]: TFV 7 µM or MVC […]
smiles,measurement,setting,value
"C[C@H](Cn1cnc2c(N)ncnc21)OCP(=O)(O)O [TFV, Tenofovir]",p24 AUC3-15,HIV-1BaL [1]; [16],1.13 ± 0.10 µgxd/ml
same,p24 AUC3-15,HIV-1BaL [1]; [17],2.55 ± 1.47 µgxd/ml
same,IC50,HIV-1BaL [1]; [18],41.4 ± 0.57 µM
same,p24 AUC3-15,HIV-1BaL [2]; [16],0.41 ± 0.17 µgxd/ml
same,p24 AUC3-15,HIV-1BaL [2]; [17],2.57 ± 1.81 µgxd/ml
same,IC50,HIV-1BaL [2]; [18],22.2 ± 1.39 µM
same,p24 AUC3-15,HIV-1YU.2; [16],1.83 ± 0.18 µgxd/ml
same,p24 AUC3-15,HIV-1YU.2; [17],10.73 ± 5.56 µgxd/ml
same,IC50,HIV-1YU.2; [18],28.9 ± 11.8 µM
same,p24 AUC3-15,HIV-1YU.2 K65R; [16],0.41 ± 0.03 µgxd/ml
same,p24 AUC3-15,HIV-1YU.2 K65R; [17],0.71 ± 0.06 µgxd/ml
same,IC50,HIV-1YU.2 K65R; [18],62.4 ± 15.8 µM
same,p24 AUC3-15,HIV-1YU.2 M184V; [16],0.52 ± 0.02 µgxd/ml
same,p24 AUC3-15,HIV-1YU.2 M184V; [17],0.82 ± 0.05 µgxd/ml
same,IC50,HIV-1YU.2 M184V; [18],37.9 ± 12.5 µM
same,p24 AUC3-15,HIV-1YU.2 K65RM184V; [16],1.01 ± 0.11 µgxd/ml
same,p24 AUC3-15,HIV-1YU.2 K65RM184V; [17],1.88 ± 0.07 µgxd/ml
same,IC50,HIV-1YU.2 K65RM184V; [18],36.4 ± 3.83 µM
same,p27 AUC3-15,SIVmac32H [3]; [16],1.25 ± 0.36 µgxd/ml
same,p27 AUC3-15,SIVmac32H [3]; [17],1.46 ± 0.52 µgxd/ml
same,IC50,SIVmac32H [3]; [19],52.6 ± 41.5 µM
same,p27 AUC3-15,SIVmac32H K65RM184V [4]; [16],1.40 ± 0.30 µgxd/ml
same,p27 AUC3-15,SIVmac32H K65RM184V [4]; [17],1.65 ± 0.30 µgxd/ml
same,IC50,SIVmac32H K65RM184V [4]; [19],81.3 ± 50.8 µM
same,p27 AUC3-15,SIVmac32H [5]; [16],1.27 ± 0.24 µgxd/ml
same,p27 AUC3-15,SIVmac32H [5]; [17],1.44 ± 0.28 µgxd/ml
same,IC50,SIVmac32H [5]; [20],56.1 ± 62.9 µM
same,p27 AUC3-15,SIVmac32H K65RM184V [6]; [16],1.37 ± 0.30 µgxd/ml
same,p27 AUC3-15,SIVmac32H K65RM184V [6]; [17],1.61 ± 0.29 µgxd/ml
same,IC50,SIVmac32H K65RM184V [6]; [20],77.1 ± 31.5 µM
same,IC50,"RT-SHIV [7]; Macaca mulatta, 360 h, NHP vaginal explants, day 15",52.1 ± 27.3 µM
same,p27 AUC3-15,RT-SHIV [7]; [16],1.28 ± 0.27 µgxd/ml
same,p27 AUC3-15,RT-SHIV [7]; [17],1.53 ± 0.29 µgxd/ml
same,p27 AUC3-15,SIVmac32H [8]; [16],1.23 ± 0.14 µgxd/ml
same,p27 AUC3-15,SIVmac32H [8]; [17],4.84 ± 1.77 µgxd/ml
same,IC50,SIVmac32H [8]; [21],25.4 ± 5.35 µM
same,p27 AUC3-15,SIVmac32H K65RM184V [9]; [16],1.38 ± 0.27 µgxd/ml
same,p27 AUC3-15,SIVmac32H K65RM184V [9]; [17],1.70 ± 0.32 µgxd/ml
same,IC50,SIVmac32H K65RM184V [9]; [21],47.9 ± 24.9 µM
same,IC50,"RT-SHIV [10]; Macaca mulatta, 360 h, NHP colorectal explants, day 15",30 ± 13.2 µM
same,p27 AUC3-15,RT-SHIV [10]; [16],1.45 ± 0.24 µgxd/ml
same,p27 AUC3-15,RT-SHIV [10]; [17],4.27 ± 2.75 µgxd/ml
same,IC50,SIVmac32H K65R,46.6 ± 12.6 µM
same,p27 AUC3-15,SIVmac32H K65R,1.43 ± 0.31 µgxd/ml and 1.95 ± 0.54 µgxd/ml
same,IC50,SIVmac32H M184V,40.2 ± 30.1 µM
same,AUC3h-15d,[11]; [22],6.37 ng·days/mg
same,AUC3h-15d,[11]; [23],1.99 ng·days/mg
same,AUC3h-15d,[11]; [24],6.62 ng·days/mg
same,AUC3h-15d,[11]; [25],2.47 ng·days/mg
same,"AUC3h-15d fold increase, high versus low concentration gels",[11]; human colorectal tissue,2.9 fold
same,Cmax,[11]; [22],3670 ng/g
same,Cmax,[11]; [23],1170 ng/g
same,Cmax,[11]; [24],2920 ng/g
same,Cmax,[11]; [25],1320 ng/g
same,exposure (AUC3h-15d) fold change,[12]; NHP colorectal explants versus ecto-cervical,2.5 fold
same,exposure (AUC3h-15d) fold change,[12]; NHP colorectal explants versus vaginal tissues,4.4 fold
same,AUC3h–15d,[12]; [22],66.86 ng·days/mg
same,AUC3h–15d,[12]; [23],13.99 ng·days/mg
same,AUC3h–15d,[12]; [24],30.64 ng·days/mg
same,AUC3h–15d,[12]; [25],4.68 ng·days/mg
same,Cmax,[12]; [22],44200 ng/g
same,Cmax,[12]; [23],9190 ng/g
same,Cmax,[12]; [24],20200 ng/g
same,Cmax,[12]; [25],2980 ng/g
same,AUC3h-15d fold increase on combining the two ARVs,"[13]; NHP ecto-cervical explants, combination versus single drug",2.2 fold
same,AUC3h–15d,[13]; [22],18.55 ng·days/mg
same,AUC3h–15d,[13]; [23],14.11 ng·days/mg
same,AUC3h–15d,[13]; [24],9.55 ng·days/mg
same,AUC3h–15d,[13]; [25],4.99 ng·days/mg
same,Cmax,[13]; [22],2460 ng/g
same,Cmax,[13]; [23],1860 ng/g
same,Cmax,[13]; [24],1250 ng/g
same,Cmax,[13]; [25],660 ng/g
same,AUC3h–15d,[14]; [22],10.16 ng·days/mg
same,AUC3h–15d,[14]; [23],5.75 ng·days/mg
same,AUC3h–15d,[14]; [24],10.25 ng·days/mg
same,AUC3h–15d,[14]; [25],4.05 ng·days/mg
same,"AUC3h-15d fold increase, high versus low concentration gels",[14]; macaque vaginal explants,2.1 fold
same,Cmax,[14]; [22],1350 ng/g
same,Cmax,[14]; [23],770 ng/g
same,Cmax,[14]; [24],1370 ng/g
same,Cmax,[14]; [25],540 ng/g
same,potency against the mutant isolates,HIV-1/SIV/SHIV isolates,reduced
same,median (IQR) fold decreased IC50 values for matched isolates,"HIV-1/SIV/SHIV isolates; colorectal tissue compared to female genital tract tissue, NHP and human explants",1.8 (1.7–2.1) fold
same,AUC3h-15d,[15]; [22],30.61 ng·days/mg
same,AUC3h-15d,[15]; [23],4.409 ng·days/mg
same,AUC3h-15d,[15]; [24],25.40 ng·days/mg
same,AUC3h-15d,[15]; [25],4.05 ng·days/mg
same,average exposure (AUC3h-15d) fold change,[15]; human ecto-cervical compared to colorectal explants,3.7 fold
same,"AUC3h-15d fold increase, high versus low concentration gels",[15]; human ecto-cervical explants,6.6 fold
same,Cmax fold increase,[15]; human ecto-cervical explants versus macaque tissue,5.6 fold
same,Cmax,[15]; [22],16600 ng/g
same,Cmax,[15]; [23],2380 ng/g
same,Cmax,[15]; [24],13600 ng/g
same,Cmax,[15]; [25],2030 ng/g
